Results as given in the NIST ThermoML archive (doi:10.1016/j.jct.2017.02.004).

How the values were obtained:
[1] = 100 kPa, Liquid; for speed of sound: Frequency=3 MHz, Single path-length method; for mass density: Vibrating tube method
[2] = mn = molality of the nth substance listed, in mol/kg; conditions: 100 kPa, Liquid; for speed of sound: Frequency=3 MHz, Single path-length method; for mass density: Vibrating tube method

CCCCn1cc[n+](C)c1.F[B-](F)(F)F [1-butyl-3-methylimidazolium tetrafluoroborate]
[1]
Conditions	mass density [kg/m3]	speed of sound [m/s]
288.15 K	1209.05	1591
293.15 K	1205.5	1578.9
298.15 K	1201.96	1566.9
303.15 K	1198.42	1555.1
308.15 K	1194.87	1543.4

[Cl-].[Li+] [lithium chloride] + CCCCn1cc[n+](C)c1.F[B-](F)(F)F
[2]
Conditions	mass density, 288.15 K [kg/m3]	mass density, 293.15 K [kg/m3]	mass density, 298.15 K [kg/m3]	mass density, 303.15 K [kg/m3]	mass density, 308.15 K [kg/m3]	speed of sound, 288.15 K [m/s]	speed of sound, 293.15 K [m/s]	speed of sound, 298.15 K [m/s]	speed of sound, 303.15 K [m/s]	speed of sound, 308.15 K [m/s]
m1 = 0.0999	1211.1	1207.56	1204.03	1200.53	1196.98	1595.5	1583.3	1571.2	1559.4	1547.7
m1 = 0.1499	1212.17	1208.61	1205.08	1201.61	1198.07	1597.7	1585.4	1573.3	1561.4	1549.7
m1 = 0.2	1213.24	1209.68	1206.14	1202.69	1199.16	1599.7	1587.3	1575.2	1563.3	1551.5
m1 = 0.2501	1214.33	1210.73	1207.22	1203.79	1200.27	1601.7	1589.2	–	1565.1	1553.2
m1 = 0.3003	1215.46	1211.88	1208.31	1204.94	1201.37	1603.5	1591	1578.7	1566.7	1554.9
m1 = 0.3498	1216.56	1212.93	1209.36	1206.04	1202.5	1605.3	1592.6	1580.3	1568.2	1556.2

CCCCn1cc[n+](C)c1.F[B-](F)(F)F [1-butyl-3-methylimidazolium tetrafluoroborate] + [Cl-].[Li+]
[2], m2 = 0
Conditions	mass density [kg/m3]	speed of sound [m/s]
288.15 K	1209.05	1591
293.15 K	1205.5	1578.9
298.15 K	1201.96	1566.9
303.15 K	1198.42	1555.1
308.15 K	1194.87	1543.4
